From ChEMBL document CHEMBL5096162, “A review on ferulic acid and analogs based scaffolds for the management of Alzheimer's disease” (Eur J Med Chem, 2021)

Assays:
[1] = molecular target: T1, Amine oxidase [flavin-containing] B (Homo sapiens, UniProt P27338); assay: Inhibition of recombinant human MAO-B using kynuramine as substrate preincubated for 15 mins followed by enzyme addition and further incubated for 20 mins by fluorescence microplate reader analysis
T1 sequence (P27338 whole entry): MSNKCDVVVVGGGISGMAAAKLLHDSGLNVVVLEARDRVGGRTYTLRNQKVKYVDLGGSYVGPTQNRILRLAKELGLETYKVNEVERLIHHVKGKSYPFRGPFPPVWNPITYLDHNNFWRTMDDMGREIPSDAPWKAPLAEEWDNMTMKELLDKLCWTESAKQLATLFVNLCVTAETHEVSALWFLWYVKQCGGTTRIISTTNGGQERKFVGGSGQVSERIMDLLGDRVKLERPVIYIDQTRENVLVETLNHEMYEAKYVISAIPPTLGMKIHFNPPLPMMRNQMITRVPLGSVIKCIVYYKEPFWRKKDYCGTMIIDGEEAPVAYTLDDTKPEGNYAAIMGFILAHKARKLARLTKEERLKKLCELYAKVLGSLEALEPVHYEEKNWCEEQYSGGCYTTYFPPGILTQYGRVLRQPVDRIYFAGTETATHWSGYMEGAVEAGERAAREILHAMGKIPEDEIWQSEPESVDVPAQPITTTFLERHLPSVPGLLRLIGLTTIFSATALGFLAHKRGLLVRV

Cholinesterase [2] = molecular target: T2, Cholinesterase (Homo sapiens, UniProt P06276); assay: Inhibition of human BuchE preincubated for 30 mins followed by substrate addition using butyrylthiocholine iodide as substrate by Ellman's method
T2 sequence (P06276 whole entry): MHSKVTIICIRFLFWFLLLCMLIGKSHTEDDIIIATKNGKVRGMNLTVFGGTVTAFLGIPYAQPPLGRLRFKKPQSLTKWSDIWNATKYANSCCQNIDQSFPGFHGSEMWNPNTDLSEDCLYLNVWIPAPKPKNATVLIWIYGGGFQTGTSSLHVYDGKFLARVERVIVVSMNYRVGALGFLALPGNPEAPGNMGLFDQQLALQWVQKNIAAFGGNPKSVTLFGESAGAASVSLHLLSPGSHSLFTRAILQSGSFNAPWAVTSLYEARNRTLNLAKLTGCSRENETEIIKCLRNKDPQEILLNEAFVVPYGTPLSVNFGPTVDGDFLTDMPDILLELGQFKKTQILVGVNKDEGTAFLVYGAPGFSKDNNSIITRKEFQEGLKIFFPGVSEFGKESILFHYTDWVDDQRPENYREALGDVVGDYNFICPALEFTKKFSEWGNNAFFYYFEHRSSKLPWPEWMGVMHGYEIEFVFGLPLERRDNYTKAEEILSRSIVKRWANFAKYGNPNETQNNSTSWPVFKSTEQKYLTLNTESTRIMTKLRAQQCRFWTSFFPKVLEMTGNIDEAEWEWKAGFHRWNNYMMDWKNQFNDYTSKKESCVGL

Acetylcholinesterase [3] = molecular target: Acetylcholinesterase (Electrophorus electricus, UniProt O42275); assay: Inhibition of electric eel AchE preincubated for 30 mins followed by substrate addition using acetylthiocholine iodide as substrate by Ellman's method
Acetylcholinesterase (Electrophorus electricus, UniProt O42275), sequence (O42275 whole entry): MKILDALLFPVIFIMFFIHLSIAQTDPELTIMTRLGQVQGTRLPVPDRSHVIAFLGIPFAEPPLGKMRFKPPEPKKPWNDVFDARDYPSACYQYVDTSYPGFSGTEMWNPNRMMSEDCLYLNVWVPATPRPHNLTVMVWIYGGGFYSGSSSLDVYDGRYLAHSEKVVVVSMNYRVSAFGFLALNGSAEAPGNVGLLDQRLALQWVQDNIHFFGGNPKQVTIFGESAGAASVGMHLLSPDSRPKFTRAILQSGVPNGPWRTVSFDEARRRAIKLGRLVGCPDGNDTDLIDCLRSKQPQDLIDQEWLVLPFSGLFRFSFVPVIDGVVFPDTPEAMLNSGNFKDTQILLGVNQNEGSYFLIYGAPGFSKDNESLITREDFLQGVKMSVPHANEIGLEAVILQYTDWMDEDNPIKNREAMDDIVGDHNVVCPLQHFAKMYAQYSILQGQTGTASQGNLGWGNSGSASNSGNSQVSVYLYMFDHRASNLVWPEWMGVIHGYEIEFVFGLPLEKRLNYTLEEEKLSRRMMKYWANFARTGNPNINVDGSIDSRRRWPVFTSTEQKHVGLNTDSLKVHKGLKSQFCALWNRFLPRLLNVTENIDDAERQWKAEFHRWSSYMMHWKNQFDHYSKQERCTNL

Cholinesterase [4] = molecular target: Cholinesterase (Equus caballus, UniProt P81908); assay: Inhibition of equine serum BuchE preincubated for 6 mins followed by substrate addition using butyrylthiocholine iodide as substrate by DTNB reagent based Ellman method
Cholinesterase (Equus caballus, UniProt P81908), sequence (P81908 whole entry): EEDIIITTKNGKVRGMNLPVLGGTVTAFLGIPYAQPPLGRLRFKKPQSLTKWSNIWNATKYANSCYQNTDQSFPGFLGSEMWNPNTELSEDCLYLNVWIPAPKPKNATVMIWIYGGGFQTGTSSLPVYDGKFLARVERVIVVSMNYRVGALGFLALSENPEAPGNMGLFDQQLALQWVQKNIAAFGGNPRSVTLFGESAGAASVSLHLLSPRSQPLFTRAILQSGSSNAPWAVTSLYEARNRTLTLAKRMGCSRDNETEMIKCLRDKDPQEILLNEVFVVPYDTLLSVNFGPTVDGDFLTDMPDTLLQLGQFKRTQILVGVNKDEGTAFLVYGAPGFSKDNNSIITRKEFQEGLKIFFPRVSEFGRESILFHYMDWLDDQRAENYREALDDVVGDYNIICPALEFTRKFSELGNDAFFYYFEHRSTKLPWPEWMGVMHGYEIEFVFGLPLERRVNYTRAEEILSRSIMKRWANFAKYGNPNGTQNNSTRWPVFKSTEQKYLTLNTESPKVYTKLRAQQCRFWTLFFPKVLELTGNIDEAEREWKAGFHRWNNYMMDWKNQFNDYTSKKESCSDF

[5] = molecular target: Amyloid-beta precursor protein (Homo sapiens) (UniProt P05067); assay: Inhibition of self-induced amyloid beta (1 to 42) (unknown origin) aggregation at 20 uM incubated for 46 to 48 hrs in dark by ThT-based fluorimetric assay; settings: time 46-48 hrs
Amyloid-beta precursor protein (Homo sapiens), sequence (P05067 whole entry): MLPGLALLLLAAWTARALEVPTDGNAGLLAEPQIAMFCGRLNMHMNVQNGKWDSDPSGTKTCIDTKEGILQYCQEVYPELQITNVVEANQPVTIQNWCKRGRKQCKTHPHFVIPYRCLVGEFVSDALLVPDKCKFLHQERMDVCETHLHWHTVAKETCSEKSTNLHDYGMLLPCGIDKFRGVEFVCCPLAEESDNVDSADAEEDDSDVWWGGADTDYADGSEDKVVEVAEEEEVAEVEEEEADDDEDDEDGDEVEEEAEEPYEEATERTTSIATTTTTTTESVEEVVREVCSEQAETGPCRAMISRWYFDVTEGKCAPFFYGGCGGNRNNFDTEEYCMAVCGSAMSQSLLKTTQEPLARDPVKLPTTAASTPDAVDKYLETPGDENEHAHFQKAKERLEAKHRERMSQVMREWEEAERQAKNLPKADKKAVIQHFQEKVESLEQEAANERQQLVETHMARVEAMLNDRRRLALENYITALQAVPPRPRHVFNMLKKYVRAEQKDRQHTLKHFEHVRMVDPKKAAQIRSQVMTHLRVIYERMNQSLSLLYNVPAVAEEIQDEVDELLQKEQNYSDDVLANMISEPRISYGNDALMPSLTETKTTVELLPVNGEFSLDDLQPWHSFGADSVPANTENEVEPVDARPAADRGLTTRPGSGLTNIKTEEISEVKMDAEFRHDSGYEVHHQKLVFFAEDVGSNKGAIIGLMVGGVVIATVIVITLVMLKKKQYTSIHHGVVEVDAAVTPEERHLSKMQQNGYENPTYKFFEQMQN

Cholinesterase [6] = molecular target: T2, Cholinesterase
Description: Inhibition of human BuchE preincubated for 6 mins followed by substrate addition using butyrylthiocholine iodide as substrate by DTNB reagent based Ellman method

PC-12 = assay: Neuroprotective activity against amyloid beta (1 to 42)-induced cytotoxicity in rat PC-12 cells assessed as increase in cell viability at 50 uM preincubated for 2 hrs followed by amyloid beta (1 to 42) stimulation and measured after 24 hrs by MTT assay; format: functional; settings: time 26 hrs
Acetylcholinesterase [7] = molecular target: Acetylcholinesterase (Homo sapiens, UniProt P22303); assay: Inhibition of human AchE preincubated for 15 mins followed by substrate addition and measured for 5 mins using acetylthiocholine iodide as substrate by DTNB reagent based Ellman's method
Acetylcholinesterase (Homo sapiens, UniProt P22303), sequence (P22303 whole entry): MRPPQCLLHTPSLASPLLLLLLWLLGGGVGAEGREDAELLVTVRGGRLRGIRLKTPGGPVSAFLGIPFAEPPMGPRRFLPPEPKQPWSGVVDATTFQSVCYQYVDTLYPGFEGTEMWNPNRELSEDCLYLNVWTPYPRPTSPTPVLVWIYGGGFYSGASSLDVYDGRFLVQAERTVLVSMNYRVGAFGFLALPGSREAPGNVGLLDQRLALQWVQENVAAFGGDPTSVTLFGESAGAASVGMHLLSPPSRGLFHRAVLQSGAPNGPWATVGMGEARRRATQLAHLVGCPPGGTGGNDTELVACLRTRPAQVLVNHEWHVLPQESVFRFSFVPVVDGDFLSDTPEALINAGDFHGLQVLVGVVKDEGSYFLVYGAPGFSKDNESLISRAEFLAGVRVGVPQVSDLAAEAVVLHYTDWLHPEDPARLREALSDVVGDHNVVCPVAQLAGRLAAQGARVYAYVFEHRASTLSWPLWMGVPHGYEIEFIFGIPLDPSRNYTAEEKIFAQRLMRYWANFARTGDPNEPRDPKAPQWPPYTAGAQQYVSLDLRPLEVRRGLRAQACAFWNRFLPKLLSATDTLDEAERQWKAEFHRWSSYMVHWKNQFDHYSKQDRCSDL

[8] = molecular target: T1, Amine oxidase [flavin-containing] B; assay: Inhibition of human MAO-B using p-tyramine as substrate preincubated for 15 mins followed by susbtrate addition and measured after 15 mins by HRP and Amplex Red reagent based fluorometric analysis
[9] = molecular target: T3, Amine oxidase [flavin-containing] A (Homo sapiens, UniProt P21397); assay: Inhibition of human MAO-A using p-tyramine as substrate preincubated for 15 mins followed by susbtrate addition and measured after 15 mins by HRP and Amplex Red reagent based fluorometric analysis
T3 sequence (P21397 whole entry): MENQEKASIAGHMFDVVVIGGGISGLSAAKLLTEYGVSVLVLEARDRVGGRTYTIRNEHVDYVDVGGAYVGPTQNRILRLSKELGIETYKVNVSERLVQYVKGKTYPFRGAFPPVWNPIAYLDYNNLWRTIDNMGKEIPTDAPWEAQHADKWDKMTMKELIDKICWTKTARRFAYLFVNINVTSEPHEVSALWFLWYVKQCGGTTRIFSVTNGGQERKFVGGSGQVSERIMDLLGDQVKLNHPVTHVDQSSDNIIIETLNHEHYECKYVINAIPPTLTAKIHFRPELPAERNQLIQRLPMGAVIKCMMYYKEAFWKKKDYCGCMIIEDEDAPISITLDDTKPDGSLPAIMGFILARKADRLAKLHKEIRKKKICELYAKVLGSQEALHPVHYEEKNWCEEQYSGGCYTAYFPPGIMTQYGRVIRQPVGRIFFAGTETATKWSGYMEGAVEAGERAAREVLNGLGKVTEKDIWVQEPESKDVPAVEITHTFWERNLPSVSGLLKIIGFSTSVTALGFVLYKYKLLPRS

[10] = Antioxidant activity assessed as DPPH radical scavenging activity at 200 uM incubated for 2 hrs in dark by spectrophotometric analysis; format: functional
[11] = molecular target: Amyloid-beta precursor protein (Homo sapiens) (UniProt P05067); assay: Inhibition of self-induced amyloid beta (1 to 40) (unknown origin) aggregation at 20 uM incubated for 48 hrs by ThT-based fluorimetric assay
[12] = Antioxidant activity of compound assessed as trolox equivalent of AAPH radical scavenging activity preincubated for 15 mins followed by AAPH addition and measured every 1 min for 60 mins by ORAC-FL assay; format: functional; settings: time 75.0 min
SH-SY5Y = assay: Neuroprotective activity against H2O2-induced cytotoxicity in human SH-SY5Y cells assessed as increase in cell viability at 10 uM preincubated for 24 hrs followed by H2O2 stimulation and measured after 24 hrs by MTS assay; format: functional; settings: time 48 hrs

## O=C(/C=C/c1ccc(O)cc1)OCCc1ccccc1
[1]
  IC50: 13 nM

## COc1cc(/C=C/C(=O)O[C@H]2C[C@H]3O[C@H](OC(=O)Nc4ccccc4)C[C@H]3O2)ccc1O
Cholinesterase [2]
  IC50: 29200 nM
Acetylcholinesterase [3]
  IC50: 27100 nM

## COc1ccc(/C=C/C(=O)Nc2cc[n+](Cc3ccc(F)cc3)cc2)cc1OC.[Br-]
Cholinesterase [4]
  IC50: 2.6 nM
[5]
  inhibition: 65.6%
Cholinesterase [6]
  IC50: 4.4 nM
PC-12
  Activity: 66.6%

## C[N+](C)(C)CCNC(=O)/C=C/c1ccc(O)c(O)c1
Acetylcholinesterase [7]
  IC50: 7300 nM

## COc1ccc(/C=C/C(=O)NCCc2ccccc2)cc1O
[8]
  Ki: 110 nM
[9]
  Ki: 1950 nM

## O=C(NCc1ccccc1)C(c1cc2ccccc2nc1Cl)N(Cc1ccccc1)C(=O)/C=C/c1ccc(O)c(O)c1 (centres undefined)
[10]
  Activity: > 77%
[11]
  inhibition: 62.7%
[12]
  Activity: 6.86 equiv
SH-SY5Y
  Activity: 21.87%
